Measured values: publication PMC11435065, “Inhibition of P-Glycoprotein Asymmetrically Alters the In Vivo Exposure Profile of SGC003F: A Novel Guanylate Cyclase Stimulator” (Pharmaceuticals, 2024)
Where two headings read alike, the source gives them in different places.

Biological target: T1, P-gp (human MDR1) (Homo sapiens, UniProt P08183)
T1 construct: expressed in transfected cells; host or cells: LLC-PK1 cells stably expressing human MDR1 (gift of Professor Qingcheng Mao, University of Washington)
Assay: Bidirectional transport across LLC-PK1-MDR1 monolayer cells with or without tariquidar
Type: in vitro ADME
Details: for efflux ratio at 2 h, 2 µM: human, read-out: ER value (efflux ratio)
Description: Cell lines: LLC-PK1 cells with stable-expressing human MDR1 and mock-transfected with empty vector (LLC-PK1-MOCK) were gifted by the lab of Professor Qingcheng Mao (University of Washington, Seattle, WA, USA). The culture medium of the LLC-PK1-MOCK and LLC-PK1-MDR1 cells was 1640 medium containing 10% FBS and 100 U/mL PS. The Caco-2 cells were purchased from ADCC. The Caco-2 cell culture medium was DMEM high-glucose medium (containing 10% FBS, 1% non-essential amino acid solution, 100 U/mL PS). Both cell lines were cultured at 37 °C in a cell incubator containing 5% CO2.
LLC-PK1-MDR1, LLC-PK1-MOCK, and Caco-2 cells were seeded in 24-well Transwell cell plates at optimized densities. The medium was changed every other day for the LLC-PK1 cells and every day for the Caco-2 cells. The LLC-PK1 cells were cultured continuously for 4–7 days, while the Caco-2 cells were cultured continuously for 28–35 days in preparation for transport experiments. Prior to the experiment, TEER (transepithelial electrical resistance) values were measured using a cell resistance meter. For electrical measurements, two electrodes were used, with one electrode placed in the upper compartment and the other in the lower compartment and the electrodes were separated by the cellular monolayer. The measurement procedure included measuring the blank resistance (Rblank) of the semipermeable membrane only (without cells) and measuring the resistance across the cell layer on the semipermeable membrane (Rtotal). TEER values were achieved by calculating as TEER = (Rtotal − Rblank) × Marea in the unit of Ω·cm^2. The monolayer integrity was guaranteed by determining the TEER before and after the bidirectional transport experiments. […]
The apparent permeability rate value (Papp) of the monolayer cells was calculated according to Equation (5) Papp = (dQ/dt)/(A × C0)(5) where dQ/dt is the transport rate (µmol·s^−1); A is the insert surface area (0.33 cm^2); C0 is the initial concentration of the compound (µM).
Efflux rate (ER) was calculated according to Equation (6):ER = Papp B-A/PappA-B(6)

T1 sequence (P08183 whole entry): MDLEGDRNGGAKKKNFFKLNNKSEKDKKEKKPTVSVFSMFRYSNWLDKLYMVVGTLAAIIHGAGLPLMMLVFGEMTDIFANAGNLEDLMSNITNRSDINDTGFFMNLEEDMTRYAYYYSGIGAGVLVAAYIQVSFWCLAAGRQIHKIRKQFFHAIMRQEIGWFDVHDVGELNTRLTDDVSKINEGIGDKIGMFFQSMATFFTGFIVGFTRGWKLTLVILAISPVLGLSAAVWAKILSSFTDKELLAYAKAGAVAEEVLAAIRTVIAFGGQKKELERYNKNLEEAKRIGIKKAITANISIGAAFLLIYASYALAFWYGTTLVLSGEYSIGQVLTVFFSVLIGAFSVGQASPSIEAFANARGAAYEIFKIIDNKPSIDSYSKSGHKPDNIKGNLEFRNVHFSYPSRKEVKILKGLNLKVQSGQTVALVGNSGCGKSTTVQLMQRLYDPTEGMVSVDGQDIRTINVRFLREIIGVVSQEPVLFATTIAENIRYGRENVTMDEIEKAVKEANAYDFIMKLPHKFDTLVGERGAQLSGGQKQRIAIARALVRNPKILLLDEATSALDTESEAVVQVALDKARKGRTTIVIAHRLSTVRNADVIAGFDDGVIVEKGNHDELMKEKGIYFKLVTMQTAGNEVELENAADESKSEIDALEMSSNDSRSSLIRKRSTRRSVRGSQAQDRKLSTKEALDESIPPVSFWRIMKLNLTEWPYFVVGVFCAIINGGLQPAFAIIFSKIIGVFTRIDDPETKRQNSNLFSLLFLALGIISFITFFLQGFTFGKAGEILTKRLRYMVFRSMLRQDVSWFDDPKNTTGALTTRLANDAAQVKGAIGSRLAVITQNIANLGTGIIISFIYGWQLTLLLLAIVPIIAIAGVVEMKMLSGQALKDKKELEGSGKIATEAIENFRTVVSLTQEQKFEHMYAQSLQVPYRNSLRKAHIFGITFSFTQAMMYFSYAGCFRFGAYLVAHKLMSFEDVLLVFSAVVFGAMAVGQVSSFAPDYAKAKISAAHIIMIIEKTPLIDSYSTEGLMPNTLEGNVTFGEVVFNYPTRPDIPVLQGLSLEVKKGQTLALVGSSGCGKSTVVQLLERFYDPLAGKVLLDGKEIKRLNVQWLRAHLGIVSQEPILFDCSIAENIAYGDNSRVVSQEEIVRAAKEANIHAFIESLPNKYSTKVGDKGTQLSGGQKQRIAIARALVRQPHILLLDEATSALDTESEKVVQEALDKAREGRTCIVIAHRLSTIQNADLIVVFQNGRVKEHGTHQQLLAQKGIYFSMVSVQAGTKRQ

- P-gp substrate assessment (LLC-PK1-MDR1 vs LLC-PK1-MOCK, with/without tariquidar): substrate for P-gp
- efflux ratio at 2 h, 2 µM (LLC-PK1, LLC-PK1-MDR1 cells, without tariquidar): 6.71
- efflux ratio at 2 h, 2 µM (LLC-PK1, with tariquidar 5 µM, LLC-PK1-MDR1 cells, with tariquidar 5 µM): 1.28
SMILES: COC(=O)Nc1c(N)nc(-c2nn(Cc3sccc3F)c3ncc(F)cc23)nc1N [SGC003F]
